Experimental data from patent US20160039897A1, “COMPOUNDS AND METHODS FOR TREATING OBESITY AND CONTROLLING WEIGHT” (THE UNIVERSITY OF NORTH CAROLINA AT CHAPEL HILL, priority 2013, published 2016).
Entries after “also recorded” stand apart in the source; their conditions may differ. No end group written: not given here. mPEG‑maleimide = methoxy-PEG maleimide (couples to the cysteine thiol)

Assays:
[1] = system: primary preadipocytes from IGFBP-2−/− mice; assay: Differentiation of primary preadipocytes (immunoblot of adiponectin, aP2, PPARγ; Oil Red O staining); assay type: cell-based, mouse; details: for effect on differentiation marker expression / preadipocyte differentiation (in words): peptides 6 μg/ml, IGFBP-2 proteins 3 μg/ml, IGF-I 100 ng/ml, in differentiation medium; for % suppression of adiponectin: mean±SE, N=3; for relative potency as inhibitor of adipogenesis / preadipocyte differentiation (in words): comparison between peptides and proteins, immunoblot and Oil Red O
Method: Primary preadipocytes were isolated from epididymal fat pads of 6 week old IGFBP-2^−/− mice. The cells were cultured using a previously described method (Boney, C M et al., 1994). The fat pads were weighed and the tissue was digested with an equal volume (W/V) of collagenase type A (Roche Applied Science, Indianapolis, Ind.) in HEPES buffer (0.1M and 1.5% BSA) for 45 min at 37° C. Following complete digestion, the preadipocytes were separated from the stromal vascular cells by centrifugation at 500×g for 5 min. The pelleted cells were washed with DMEM containing 30 mM glucose (Gibco, Grand Island, N.Y.) and passed through a 100 μm mesh filter (BD Biosciences, Bedford, Mass.). The cells were then plated in 6-well plates (Falcon Corp., Franklin Lakes, N.J.) at a density of 1.2-1.5×10^4 cells/ml in DMEM containing 30 mM glucose supplemented with penicillin (100 U/ml), streptomycin (100 μg/ml), and 10% fetal bovine serum hereafter referred to as standard medium. The cultures had the medium changed every 2 days until they reached confluency. Two day post-confluent cells were then exposed to differentiation medium (serum free DMEM containing 0.5 mM IBMX, 1 μM dexamethasone, and 5 μg/mL insulin) and incubated for 2 days. Experimental treatments that were added to this medium included either wild type IGFBP-2 (3 μg/ml), HBD1 peptide (6 μg/ml), HBD1 control peptide (6 μg/ml), HBD2 peptide (6 μg/ml), HBD2 control peptide (6 μg/ml), HBD1 mutant IGFBP-2 (3 μg/ml) or the HBD2 mutant IGFBP-2 (3 μg/ml). Cultures were maintained for two additional days in the standard medium supplemented with 5 μg/ml insulin. Thereafter, the cultures were kept in the fresh standard medium without insulin for additional two days.
After treatment, the cells were rinsed with PBS for two times and fixed with 10% formalin for 30 min at room temperature. After rinsing with distilled water for twice, 100% propylene glycol (Poly Scientific, Bay Shore, N.Y.) was added and incubated for 5 min. Before adding Oil Red O solution (Poly Scientific, Bay Shore, N.Y.), propylene glycol was removed. The cultures were incubated for 10 min at 60° C. Removing Oil Red O solution, the cultures were incubated with 80% propylene glycol for 5 min, After incubation, the cultures were rinsed with tap water twice. Images were captured using an Olympus IX81 inverted microscope.
Differentiated adipocytes were lysed in ice-cold lysis buffer (Xi et al., 2008). After centrifugation at 14,000×g for 10 min, solubilized proteins were quantified by the Bradford method (Thermo Scientific, Rockford, Ill.). Equal protein amounts of lysates were loaded onto a SDS-polyacrylamide gel and the proteins were separated, then transferred to an Immobilon filter and visualized by immunoblotting using the appropriate antibody. The primary antibody dilutions that were used were 1:1000 for the anti-adiponectin antibody (Affinity BioReagents, Golden, Colo.), 1:500 for the anti-PPARγ antibody (Cell Signaling Technology Inc., Beverly, Mass.), 1:2000 for the anti-apt antibody (ProSci Inc., Poway, Calif.) and 1:5000 for the anti-β-actin antibody (Sigma Chemical Company, St. Louis, Mo.). The immune complexes were visualized using enhanced chemiluminescence (Thermo Fischer Scientific, Rockford, Ill.).
Preadipocytes were prepared from mice and grown in culture as described herein. The respective mouse and human peptides were added to cells and the cells were lysed and the lysates were run on SDS gels as described. Immunoblotting for adiponectin was carried as described. Three concentrations of each peptide, 0.7, 2.0 and 6.0 μg/ml, were compared. The results were expressed as % suppression mean±SE(N=3) and were as follows.
Cell culture of primary preadipocytes. Preadipocytes were isolated from epididymal fat pads of IGFBP-2^−/− mice. The cultures had the medium changed every 2 days until they reached confluency. […]

IGFBP-2−/− mice [2] = assay: Body composition (fat and lean mass) by EchoMRI at weeks 0 and 12; assay type: in vivo, mouse; details: weeks 0 to 12; pegylated peptide 50 μg IP 3 times/week; mean±SE
Method: (§1) Body fat and lean muscle mass was measured at weeks 0 and 12 of treatment by magnetic resonance imaging analysis (EchoMRI-100, Echo Medical Systems, Houston, Tex.), a technique that measures fat mass and lean mass in unanesthetized animals (Kelly S A, et. al., 2010). After completion of 12 weeks of treatment, the mice were sacrificed. Blood was collected by cardiac puncture and allowed to sit for 4 hours before centrifuging at 3500 rpm×15 min. The serum was aspirated and stored at −20° C. until analysis. Abdominal inguinal and visceral fat pads were carefully dissected from each animal according to defined anatomical landmarks. All subcutaneous fat between the lower part of the rib cage and the upper thigh was considered abdominal subcutaneous inguinal fat, whereas all fat found along the mesentery starting at the lesser curvature of the stomach and ending at the sigmoid colon was considered visceral fat. Fat depots were blotted dry prior to weighing. The right inguinal fat pad was dissected separately and the triglyceride content of this tissue was determined by a colorimetric analysis (Pointe Scientific, Canton, Mich.), as previously described (Dann H, Kimura S 1992). Serum adiponectin and leptin were measured by ELISA following manufacturer's instructions (Millipore, Billerica, Mass.).
(§2) Body composition and serum adipokine measurement. Body fat and lean mass were measured at weeks 0 and 12 of treatment by magnetic resonance imaging analysis (EchoMRI-100, Echo Medical Systems, Houston, Tex.), using unanesthetized animals. After 12 weeks of treatment, the mice were sacrificed and blood was collected by cardiac puncture and centrifuged at 3500 rpm×15 min. The serum was stored at −20° C. Abdominal inguinal and visceral fat pads were dissected from each animal according to defined anatomical landmarks. Subcutaneous fat between the rib cage and the upper thigh was termed subcutaneous inguinal fat, whereas all fat from the lesser curvature of the stomach to the sigmoid colon was termed visceral fat. Fat depots were blotted dry prior to weighing. The right inguinal fat pad was dissected separately and the triglyceride content of this tissue was determined by a calorimetric analysis (Pointe Scientific, Canton, Mich. Serum adiponectin and leptin were measured by ELISA following manufacturer's instructions (Millipore, Billerica, Mass.).

IGFBP-2−/− mice [3] = assay: Inguinal and visceral fat pad, liver and heart weights at sacrifice; assay type: in vivo, mouse; details: after 12 weeks; pegylated peptide 50 μg IP 3 times/week; mean±SE
Method: as §1, §2

[4] = system: ovariectomized C57B6 normal mice (IGFBP-2 +/+); assay: Body composition MRI analysis in ovariectomized genetically normal mice; assay type: in vivo, mouse; details: for Fat / Body weight: 2.5 mg/kg
Method: Experiments were conducted in which the HBD-2 peptide was administered to genetically normal, ovariectomized mice to determine if it would induce fat loss. The purpose of this experiment was to determine if the peptide could alter fat mass in ovariectomized mice. Estrogen deficient mice are known to gain fat mass following removal of the ovaries. Since the peptide had not been tested in an animal model that had not been genetically manipulated and since it had not been tested in a condition wherein fat mass had been acquired previously to determine if it could reduce pre-existing fat mass this experiment was undertaken. The experimental design was as follows.
(§3) There were 8 mice in each treatment group. C57B6 normal mice underwent ovaryectomy at age 8 weeks. They were then maintained on a normal Chow diet (6% fat) for three weeks. At that time they were treated with 2.5 mg/kg of the active peptide injected subcutaneously two days per week for four weeks. The peptide is the pegylated HBD-2 peptide described herein,
(§4) A second treatment group that had also undergone ovariectomy was treated with the identical concentration of a control peptide that contained the same amino acids but in a scrambled order. A third group underwent sham surgery wherein an incision was made and then closed and the ovaries were not removed. For comparison the response of mice that had had the IGF BP-2 gene deleted were treated in the same manner.
(§5) Eight mice underwent and were treated with the active peptide for four weeks as described for the normal animals. Eight additional mice received the control peptide and eight mice received the sham procedure. The animals were weighed weekly. After 4 weeks they underwent MRI analysis to determine body composition. Both lean mass and fat mass were quantified and the percent fat as a percent total body weight was determined mathematically.

[5] = system: ovariectomized IGFBP-2 −/− mice; assay: Body composition MRI analysis in ovariectomized IGFBP-2 knockout mice; assay type: in vivo, mouse; details: IGFBP-2 −/− OVX mice, 2.5 mg/kg sc two days per week for four weeks; for Fat: 2.5 mg/kg
Method: as §3, §4, §5

[6] = IGFBP-2 +/+ OVX mice, 2.5 mg/kg sc two days per week for four weeks, MRI

For “CKPLRLSKEEHPLK [HBD1 control peptide, scrambled HBD1 peptide, reference compound]”, the “effect on differentiation marker expression / preadipocyte differentiation (in words)” value [1] was “had no effect”.

With “IGF-I: insulin-like growth factor-I added at 100 ng/ml to differentiation medium [reference compound]” the “effect on differentiation marker expression / preadipocyte differentiation (in words)” value [1] was “no additional effect on cell differentiation”.

“KHGRYNLKQCKMSLNGQR [Mouse, mouse IGFBP-2 HBD2 peptide]” was tested, and the “% suppression of adiponectin” value ([1]; 0.7 μg/ml peptide) was 51.2 ± 8.1%, the “% suppression of adiponectin” value ([1]; 2.0 μg/ml peptide) was 85.6 ± 11.4% and the “% suppression of adiponectin” value ([1]; 6.0 μg/ml peptide) was 95.5 ± 9.9%. For the same molecule, the “relative potency as inhibitor of adipogenesis / preadipocyte differentiation (in words)” value [1] was “equipotent”.

In the case of “Peg HBD2: HBD2 peptide with added cysteine (CKHGLYNLKQCKMSLNGQR), pegylated with methoxy PEG maleimide (C(mPEG‑maleimide)KHGLYNLKQCKMSLNGQR)”, the Fat mass increase (IGFBP-2−/− mice [2]) is reported as 0.58 ± 0.12 g, the Lean mass increase (IGFBP-2−/− mice [2]) is reported as 3.10 ± 0.57 g and the Inguinal fat (IGFBP-2−/− mice [3]) is reported as 0.23 ± 0.02 g. It also gave a Visceral fat (IGFBP-2−/− mice [3]) of 0.25 ± 0.02 g, a Fat % [4, 6] of 19.42 ± 1.1% and a Lean [4, 6] of 17.40 ± 0.3 g. For the same molecule, the Total [4, 6] was 21.65 ± 0.6 g, the Fat ([4]; IGFBP-2 +/+ OVX mice, 2.5 mg/kg sc two days per week for four weeks, MRI, listed as HBD) was 4.0 ± 0.4 g and the Fat ([4]; IGFBP-2 +/+ OVX mice, 2.5 mg/kg sc two days per week for four weeks, MRI, listed as active peptide) was 4.0 g. The Body weight ([4]; IGFBP-2 +/+ OVX mice, 2.5 mg/kg sc two days per week for four weeks, listed as HBD) was 23.0 ± 0.8 g, the Body weight ([4]; IGFBP-2 +/+ OVX mice, 2.5 mg/kg sc two days per week for four weeks, listed as active peptide) was 23.0 g and the “body weight and total fat mass (in words)” value ([4]; OVX mice, after four weeks of treatment) was “significantly decreased”. For the same molecule, the Body weight [5] was 21.95 ± 0.8 g, the Fat % ([5]; MRI) was 18.75 ± 1.0% and the Lean ([5]; MRI) was 16.97 ± 0.4 g. The Total ([5]; MRI) was 20.90 ± 0.8 g, the Fat ([5]; MRI) was 3.85 g and the Fat ([5]; MRI, listed as HBD(pept)) was 3.85 ± 0.4 g.

“RKGFYKRKQCKPSRGRKR [HBD2 control peptide, reference compound]” was tested, and the “effect on differentiation marker expression / preadipocyte differentiation (in words)” value [1] was “did not affect their expression; also recorded: did not alter their expression”.

B1: native IGFBP-2: native (wild type) insulin-like growth factor binding protein-2; FIG. 2 legend says wild type bovine IGFBP-2 (protein, UniProt P13384 34-317, looked up)
Insulin-like growth …: EVLFRCPPCTPESLAACKPPPGAAAGPAGDARVPCELVREPGCGCCSVCARLEGERCGVYTPRCGQGLRCYPNPGSELPLRALVHGEGTCEKHGDAEYSASPEQVADNGEEHSEGGLVENHVDGNVNLMGGGGGAGRKPLKSGMKELAVFREKVTEQHRQMGKGGKHHLGLEEPKKLRPPPARTPCQQELDQVLERISTMRLPDERGPLEHLYSLHIPNCDKHGLYNLKQCKMSLNGQRGECWCVNPNTGKLIQGAPTIRGDPECHLFYNEQQGARGVHTQRMQ
B1 was tested, and the “relative potency as inhibitor of adipogenesis / preadipocyte differentiation (in words)” value [1] was “most potent inhibitors of adipogenesis” and the “effect on differentiation marker expression / preadipocyte differentiation (in words)” value [1] was “inhibited preadipocyte differentiation into mature adipocytes”.
